Each structure is given as a SMILES string. In brackets after ≈: the same amount, converted by molar mass. Where only a bound is given, the exact number is not on record here.

The term EC50 denotes the concentration at which the effect is half-maximal. Usually IC50 stands for the concentration needed to halve the response being measured. A low value points to greater potency in that assay. The ED50 is the dose that gives a 50% effect, or the effect in half of the subjects. The low end stands for greater potency, the high end for weaker potency. As usually defined, the solubility is the concentration that dissolves in the medium under given conditions.

Series [1] relates to Plasmodium falciparum. The series is described as follows: Antiplasmodial activity against Plasmodium falciparum after 72 hrs by MSF assay. The format is functional, organism-based.
A short description of series [2]: Half life in mouse hepatic microsomes by LC/MS analysis in presence of NADPH. The format is ADME. Conditions: liver microsomes. A general note: Liver microsomes are a subcellular fraction often used to study metabolism.
Series [3] has as its system Plasmodium falciparum. The series is described as follows: Antiplasmodial activity against atovaquone-resistant Plasmodium falciparum Tm90.C2B after 72 hrs by MSF assay. The format is functional, organism-based.
Series [4] has as its system Plasmodium falciparum. The series is described as follows: Antiplasmodial activity against blood stage form of Plasmodium falciparum NF54. Type of series: functional, organism-based.
Series [5] deals with Plasmodium falciparum. The series is described as follows: Antiplasmodial activity against Plasmodium falciparum W2. Type of series: functional, organism-based.
Series [6] addresses Voltage-gated inwardly rectifying potassium channel KCNH2 (Homo sapiens, UniProt Q12809). The series is described as follows: Binding affinity to human ERG channel.
A short description of series [7]: Elimination half life in CD-1 mouse at 5 mg/kg, po. The format is ADME, organism-based. On the set-up: dose 5 mg/kg, route oral. Conditions: in vivo, read-out: beta t1/2 (converted).
Series [8] has as its system Plasmodium falciparum. The series is described as follows: Antiplasmodial activity against blood stage Plasmodium falciparum 3D7 by SYBR Green method. The format is functional, organism-based.
Another series relates to Plasmodium berghei. The series is described as follows: Antiplasmodial activity against Plasmodium berghei infected po dosed CD-1 mouse model administered qd measured on day 4. The format is functional. Conditions: 96 h.
Series [9] deals with Plasmodium falciparum. The series is described as follows: Antiplasmodial activity against wild type Plasmodium falciparum 3D7. The format is functional, organism-based.
The test system of series [10] is Plasmodium falciparum. The series is described as follows: Antiplasmodial activity against chloroquine-sensitive Plasmodium falciparum 3D7. The format is functional, organism-based.
Series [11] can be described thus: Solubility of the compound at pH 6.8. The format is physicochemical. Conditions: buffer.
Series [12] relates to Plasmodium falciparum. The series is described as follows: Antimicrobial activity against clinical isolates of Plasmodium falciparum. Type of series: functional, organism-based.
A further series deals with Plasmodium. The series is described as follows: Antimicrobial activity against Plasmodium. Type of series: functional.
Series [13] in a line: Aqueous solubility of the compound. Conditions: aqueous (not further specified). The format is physicochemical.
Series [14] can be described thus: Half life in mouse liver microsomes. The format is ADME, Microsome.
For series [15], the system named is Plasmodium falciparum. The series is described as follows: Antiplasmodial activity against Plasmodium falciparum W2/Indochina after 72 hrs by SYBR Green method. The format is functional.

Chain of Voltage-gated inwardly rectifying potassium channel KCNH2 (Q12809 whole entry): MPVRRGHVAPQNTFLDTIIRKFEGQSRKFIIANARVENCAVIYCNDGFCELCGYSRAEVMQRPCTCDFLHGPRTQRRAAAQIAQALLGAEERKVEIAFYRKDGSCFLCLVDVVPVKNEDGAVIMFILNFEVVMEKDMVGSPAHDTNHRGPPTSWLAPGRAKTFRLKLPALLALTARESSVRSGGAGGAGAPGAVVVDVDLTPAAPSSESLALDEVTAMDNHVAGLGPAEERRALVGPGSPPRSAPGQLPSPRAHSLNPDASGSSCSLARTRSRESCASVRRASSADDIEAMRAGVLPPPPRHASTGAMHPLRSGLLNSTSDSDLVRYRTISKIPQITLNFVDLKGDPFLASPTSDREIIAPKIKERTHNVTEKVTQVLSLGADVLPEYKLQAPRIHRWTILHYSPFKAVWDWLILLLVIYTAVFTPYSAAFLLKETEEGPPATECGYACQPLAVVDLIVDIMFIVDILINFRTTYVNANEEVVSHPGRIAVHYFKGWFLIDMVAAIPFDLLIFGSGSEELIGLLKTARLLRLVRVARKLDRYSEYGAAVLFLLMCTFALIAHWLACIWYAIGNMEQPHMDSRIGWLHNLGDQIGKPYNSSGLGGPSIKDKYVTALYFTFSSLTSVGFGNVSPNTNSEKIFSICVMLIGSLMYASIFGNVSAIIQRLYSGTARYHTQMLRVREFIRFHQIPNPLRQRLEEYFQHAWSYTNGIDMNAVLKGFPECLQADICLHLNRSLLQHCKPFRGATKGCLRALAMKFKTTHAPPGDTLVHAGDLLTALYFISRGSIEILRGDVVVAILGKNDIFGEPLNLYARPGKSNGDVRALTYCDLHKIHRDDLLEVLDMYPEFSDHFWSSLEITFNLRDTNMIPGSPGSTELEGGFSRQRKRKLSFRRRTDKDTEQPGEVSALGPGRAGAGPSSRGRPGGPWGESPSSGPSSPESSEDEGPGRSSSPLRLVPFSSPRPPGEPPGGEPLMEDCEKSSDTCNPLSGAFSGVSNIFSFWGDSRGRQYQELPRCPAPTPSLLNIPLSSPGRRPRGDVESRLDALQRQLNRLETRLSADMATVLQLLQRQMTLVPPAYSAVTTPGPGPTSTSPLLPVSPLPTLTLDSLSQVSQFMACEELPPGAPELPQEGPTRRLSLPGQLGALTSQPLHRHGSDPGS

For `CCCCCCCc1c(C)[nH]c2cc(F)cc(F)c2c1=O`, the EC50 with Plasmodium falciparum [1] was found to be 0.1 nM; in the series with Plasmodium falciparum [3] it was 80 nM. Besides, the half-life in series [2] was 0.245 h.
In the series with Plasmodium falciparum [4], `C[C@H]1Cc2c([nH]c3cc(Cl)c(F)cc23)[C@@]2(N1)C(=O)Nc1ccc(Cl)cc12` [CIPARGAMIN] came in with an EC50 of 1 nM.
As to `COc1ccc2c(=O)c(CCCCCC(F)(F)F)c(C)[nH]c2c1`, the EC50 is 30 nM with Plasmodium falciparum [1] and 66 nM in the series with Plasmodium falciparum [3].
In the series on Plasmodium falciparum [5], `CC1(C)c2nc(-c3ccc(F)cc3)c(Nc3ccc(Cl)cc3)n2CCN1C(=O)CN` registered an EC50 of 6 nM. The compound further had an IC50 in series [6] of 7200 nM.
With `CCOC(=O)c1c(-c2ccc(-c3ccc(OC(F)(F)F)cc3)cn2)[nH]c2ccccc2c1=O`, in series [7], the half-life is 10.6 h. Also, the EC50 in the series on Plasmodium falciparum [8] stood at 30 nM. Besides, the ED50 with Plasmodium berghei was determined as 2 mg/kg.
Turning to `CCOC(=O)c1c(C)[nH]c2cc(Cc3ccc(OC(F)(F)F)cc3)ccc2c1=O`, the EC50 with Plasmodium falciparum [9] was found to be 0.46 nM.
In the series with Plasmodium falciparum [10], `FC(F)(F)Oc1ccc(Nc2cc(Nc3nccn3-c3cccc(C(F)(F)F)c3)ncn2)cc1` yielded an EC50 of 420 nM.
For the compound `COc1cc2[nH]c(C)c(-c3ccc(Oc4ccc(OC(F)(F)F)cc4)cc3)c(=O)c2cc1Cl`, the solubility in series [11] is below 1 µM. Besides, in the series on Plasmodium falciparum [12], the EC50 turned out to be 1 nM.
In turn, `Cc1nc(C)c(Cl)c(O)c1Cl` [CLOPIDOL] returned an EC50 in the series with Plasmodium of 20000 nM.
For the compound `O=c1c2c([nH]c3ccc(-c4ccc(C(F)(F)F)cc4)cc13)CCSC2`, the solubility in [13] was found to be 2 µM (≈ 0.723 µg/mL). The half-life in series [14] is above 3 h. This compound also yielded an Activity with Plasmodium falciparum [15] of 30 nM.

For the origin of these results see ChEMBL document CHEMBL2429781, “Cell-based medicinal chemistry optimization of high-throughput screening (HTS) hits for orally active antimalarials. Part 1: challenges in potency and absorption, distribution, metabolism, excretion/pharmacokinetics (ADME/PK)” (J Med Chem, 2013).
